We go through 23 compounds from ChEMBL document CHEMBL5291721, “A preclinical secondary pharmacology resource illuminates target-adverse drug reaction associations of marketed drugs” (Nat Commun, 2023).

One test addresses Bile salt export pump (Homo sapiens, UniProt O95342). It is filed as functional.
A further test has as its target Melanocortin receptor 3 (Homo sapiens, UniProt P41968).
Test [1] addresses Delta-type opioid receptor (Homo sapiens, UniProt P41143).
In the next test the target is D(1A) dopamine receptor (Homo sapiens, UniProt P21728). It is filed as functional, cell-based.
The target of a further test is T1, Adenosine receptor A1 (Homo sapiens, UniProt P30542).
T1 sequence (P30542 whole entry): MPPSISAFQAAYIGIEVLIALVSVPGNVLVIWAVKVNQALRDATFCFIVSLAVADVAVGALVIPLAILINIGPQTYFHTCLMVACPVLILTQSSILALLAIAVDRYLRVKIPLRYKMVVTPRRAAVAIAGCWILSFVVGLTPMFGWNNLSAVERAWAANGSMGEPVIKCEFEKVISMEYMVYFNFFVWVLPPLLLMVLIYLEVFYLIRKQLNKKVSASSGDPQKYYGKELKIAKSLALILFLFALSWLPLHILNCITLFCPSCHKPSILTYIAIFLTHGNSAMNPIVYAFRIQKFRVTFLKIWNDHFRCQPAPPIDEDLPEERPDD

For test [2], the target named is T2, 5-hydroxytryptamine receptor 3A (Homo sapiens, UniProt P46098).
T2 sequence (P46098 whole entry): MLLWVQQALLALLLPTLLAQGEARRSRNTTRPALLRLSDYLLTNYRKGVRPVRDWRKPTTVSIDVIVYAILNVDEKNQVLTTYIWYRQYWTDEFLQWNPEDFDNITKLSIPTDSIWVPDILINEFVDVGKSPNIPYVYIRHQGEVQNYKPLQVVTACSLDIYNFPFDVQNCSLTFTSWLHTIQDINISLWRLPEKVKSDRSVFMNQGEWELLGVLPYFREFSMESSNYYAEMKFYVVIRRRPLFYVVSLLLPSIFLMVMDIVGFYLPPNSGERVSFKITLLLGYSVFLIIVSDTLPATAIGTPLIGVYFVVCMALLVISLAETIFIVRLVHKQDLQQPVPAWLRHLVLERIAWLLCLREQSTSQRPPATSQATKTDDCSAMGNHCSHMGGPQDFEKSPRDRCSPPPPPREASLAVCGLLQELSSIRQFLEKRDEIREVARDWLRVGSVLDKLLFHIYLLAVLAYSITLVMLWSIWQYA
Type of test: functional.

Another test deals with Adenosine receptor A2a (Homo sapiens, UniProt P29274).
The target of test [3] is 3',5'-cyclic-AMP phosphodiesterase 4D (Homo sapiens, UniProt Q08499). It is filed as functional.
The target of test [4] is T3, Alpha-2C adrenergic receptor (Homo sapiens, UniProt P18825).
T3 sequence (P18825 whole entry): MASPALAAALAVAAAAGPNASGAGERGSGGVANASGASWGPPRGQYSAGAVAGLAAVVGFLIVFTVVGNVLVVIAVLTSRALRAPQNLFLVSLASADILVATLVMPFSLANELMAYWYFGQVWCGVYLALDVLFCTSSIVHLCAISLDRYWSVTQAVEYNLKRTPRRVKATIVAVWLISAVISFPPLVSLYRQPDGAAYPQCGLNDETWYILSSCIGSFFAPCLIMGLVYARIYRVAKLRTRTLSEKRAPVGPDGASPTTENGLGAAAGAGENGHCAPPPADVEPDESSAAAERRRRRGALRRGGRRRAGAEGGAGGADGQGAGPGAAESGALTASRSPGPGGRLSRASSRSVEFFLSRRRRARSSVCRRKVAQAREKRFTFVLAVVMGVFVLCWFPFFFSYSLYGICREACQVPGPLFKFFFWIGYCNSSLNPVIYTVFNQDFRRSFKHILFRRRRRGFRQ
Type of test: functional.

In test [5] the target is T4, 5-hydroxytryptamine receptor 1A (Homo sapiens, UniProt P08908).
T4 sequence (P08908 whole entry): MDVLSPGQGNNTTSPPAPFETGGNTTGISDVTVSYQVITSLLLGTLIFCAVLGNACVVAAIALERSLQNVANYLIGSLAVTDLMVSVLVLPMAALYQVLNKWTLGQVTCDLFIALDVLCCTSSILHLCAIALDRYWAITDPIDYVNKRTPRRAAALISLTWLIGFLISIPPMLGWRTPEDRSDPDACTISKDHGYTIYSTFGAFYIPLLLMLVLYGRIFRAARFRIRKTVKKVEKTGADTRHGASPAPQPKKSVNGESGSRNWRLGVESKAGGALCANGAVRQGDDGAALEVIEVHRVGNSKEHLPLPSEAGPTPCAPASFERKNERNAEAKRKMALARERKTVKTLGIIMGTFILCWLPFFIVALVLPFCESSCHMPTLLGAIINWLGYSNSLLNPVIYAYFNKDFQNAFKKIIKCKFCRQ
It is filed as functional, cell-based.

The target in test [6] is T5, Alpha-2A adrenergic receptor (Homo sapiens, UniProt P08913).
T5 sequence (P08913 whole entry): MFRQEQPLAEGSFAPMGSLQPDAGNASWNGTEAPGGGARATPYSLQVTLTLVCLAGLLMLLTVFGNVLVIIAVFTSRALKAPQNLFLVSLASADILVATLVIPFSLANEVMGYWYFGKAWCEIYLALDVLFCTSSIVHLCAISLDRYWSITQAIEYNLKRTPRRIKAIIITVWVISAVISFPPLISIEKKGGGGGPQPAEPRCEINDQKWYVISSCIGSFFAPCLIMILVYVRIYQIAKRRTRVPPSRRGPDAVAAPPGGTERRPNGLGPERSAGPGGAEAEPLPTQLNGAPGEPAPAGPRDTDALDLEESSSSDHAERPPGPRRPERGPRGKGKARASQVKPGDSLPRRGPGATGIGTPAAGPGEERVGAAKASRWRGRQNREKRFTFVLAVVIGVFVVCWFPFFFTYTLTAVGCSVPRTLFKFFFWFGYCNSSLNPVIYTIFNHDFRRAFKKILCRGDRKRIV
Type of test: functional, cell-based.

Test [7] addresses Sodium-dependent noradrenaline transporter (Homo sapiens, UniProt P23975).
Test [8] deals with 5-hydroxytryptamine receptor 2B (Homo sapiens, UniProt P41595). Type of test: functional, cell-based.
Further: assay procedure not described here.

Melanocortin receptor 3, sequence (P41968 whole entry): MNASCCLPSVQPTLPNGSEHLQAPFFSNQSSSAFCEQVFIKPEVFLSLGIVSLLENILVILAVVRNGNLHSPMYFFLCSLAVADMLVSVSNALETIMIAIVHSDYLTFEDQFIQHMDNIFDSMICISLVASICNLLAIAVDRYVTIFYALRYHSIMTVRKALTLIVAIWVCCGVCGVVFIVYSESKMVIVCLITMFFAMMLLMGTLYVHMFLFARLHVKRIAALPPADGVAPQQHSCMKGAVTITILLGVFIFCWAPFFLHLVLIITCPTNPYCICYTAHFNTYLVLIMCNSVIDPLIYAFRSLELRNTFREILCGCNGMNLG
5-hydroxytryptamine receptor 2B, sequence (P41595 whole entry): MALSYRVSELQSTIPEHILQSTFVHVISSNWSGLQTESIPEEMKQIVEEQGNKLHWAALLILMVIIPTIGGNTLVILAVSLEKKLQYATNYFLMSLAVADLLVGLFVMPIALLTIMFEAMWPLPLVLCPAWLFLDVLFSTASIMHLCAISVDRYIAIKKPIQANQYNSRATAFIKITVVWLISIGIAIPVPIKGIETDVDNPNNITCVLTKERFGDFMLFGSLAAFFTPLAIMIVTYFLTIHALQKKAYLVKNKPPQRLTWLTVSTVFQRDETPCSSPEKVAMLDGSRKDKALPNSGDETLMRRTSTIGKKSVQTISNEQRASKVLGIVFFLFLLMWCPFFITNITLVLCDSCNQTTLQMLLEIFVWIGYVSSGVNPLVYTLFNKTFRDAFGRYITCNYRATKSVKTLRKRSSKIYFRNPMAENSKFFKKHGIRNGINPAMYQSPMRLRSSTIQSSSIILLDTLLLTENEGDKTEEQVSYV
D(1A) dopamine receptor, sequence (P21728 whole entry): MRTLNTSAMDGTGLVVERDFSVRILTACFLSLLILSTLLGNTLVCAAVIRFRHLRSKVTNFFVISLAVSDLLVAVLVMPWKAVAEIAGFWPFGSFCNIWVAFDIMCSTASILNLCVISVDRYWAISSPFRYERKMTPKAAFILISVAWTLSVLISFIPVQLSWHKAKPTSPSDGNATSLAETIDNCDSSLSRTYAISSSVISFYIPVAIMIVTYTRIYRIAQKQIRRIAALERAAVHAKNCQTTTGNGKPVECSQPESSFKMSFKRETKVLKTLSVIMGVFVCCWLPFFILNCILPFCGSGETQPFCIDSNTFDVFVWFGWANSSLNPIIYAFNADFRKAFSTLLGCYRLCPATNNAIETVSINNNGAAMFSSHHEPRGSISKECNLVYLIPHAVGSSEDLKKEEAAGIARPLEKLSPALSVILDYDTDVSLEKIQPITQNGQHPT
Adenosine receptor A2a, sequence (P29274 whole entry): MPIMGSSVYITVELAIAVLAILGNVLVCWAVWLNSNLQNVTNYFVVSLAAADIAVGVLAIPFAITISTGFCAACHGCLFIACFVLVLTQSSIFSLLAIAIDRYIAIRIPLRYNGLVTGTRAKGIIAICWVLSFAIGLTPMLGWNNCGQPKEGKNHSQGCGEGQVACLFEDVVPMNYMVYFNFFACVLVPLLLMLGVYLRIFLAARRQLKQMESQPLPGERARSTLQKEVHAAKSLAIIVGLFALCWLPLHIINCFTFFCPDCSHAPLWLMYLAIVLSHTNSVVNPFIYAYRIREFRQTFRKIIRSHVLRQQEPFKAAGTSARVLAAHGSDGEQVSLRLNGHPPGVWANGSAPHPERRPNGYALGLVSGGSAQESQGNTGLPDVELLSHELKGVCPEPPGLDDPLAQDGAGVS
Delta-type opioid receptor, sequence (P41143 whole entry): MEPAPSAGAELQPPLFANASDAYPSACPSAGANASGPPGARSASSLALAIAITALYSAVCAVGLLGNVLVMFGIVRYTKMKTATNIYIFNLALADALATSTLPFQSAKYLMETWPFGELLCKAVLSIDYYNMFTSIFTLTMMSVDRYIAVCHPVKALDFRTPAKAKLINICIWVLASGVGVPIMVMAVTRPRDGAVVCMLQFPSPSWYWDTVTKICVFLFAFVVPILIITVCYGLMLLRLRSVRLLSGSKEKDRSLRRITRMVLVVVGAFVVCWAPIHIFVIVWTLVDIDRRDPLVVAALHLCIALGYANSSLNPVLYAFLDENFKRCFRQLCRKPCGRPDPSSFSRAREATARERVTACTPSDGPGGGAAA
Sodium-dependent noradrenaline transporter, sequence (P23975 whole entry): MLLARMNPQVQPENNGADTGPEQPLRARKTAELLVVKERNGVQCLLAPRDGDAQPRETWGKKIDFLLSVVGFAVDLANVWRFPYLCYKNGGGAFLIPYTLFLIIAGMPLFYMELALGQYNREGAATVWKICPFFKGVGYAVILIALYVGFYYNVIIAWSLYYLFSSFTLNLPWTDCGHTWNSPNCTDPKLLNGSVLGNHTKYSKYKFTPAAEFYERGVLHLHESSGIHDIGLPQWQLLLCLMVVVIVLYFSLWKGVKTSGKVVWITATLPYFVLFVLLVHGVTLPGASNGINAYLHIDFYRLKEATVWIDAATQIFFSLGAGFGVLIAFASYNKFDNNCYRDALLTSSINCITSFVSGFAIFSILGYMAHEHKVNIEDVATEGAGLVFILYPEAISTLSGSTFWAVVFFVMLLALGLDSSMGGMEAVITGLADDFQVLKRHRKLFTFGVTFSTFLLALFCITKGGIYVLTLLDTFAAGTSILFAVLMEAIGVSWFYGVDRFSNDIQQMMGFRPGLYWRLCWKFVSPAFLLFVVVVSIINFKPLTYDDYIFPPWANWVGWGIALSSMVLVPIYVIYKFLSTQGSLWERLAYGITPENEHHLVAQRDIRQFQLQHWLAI
3',5'-cyclic-AMP phosphodiesterase 4D, sequence (Q08499 whole entry): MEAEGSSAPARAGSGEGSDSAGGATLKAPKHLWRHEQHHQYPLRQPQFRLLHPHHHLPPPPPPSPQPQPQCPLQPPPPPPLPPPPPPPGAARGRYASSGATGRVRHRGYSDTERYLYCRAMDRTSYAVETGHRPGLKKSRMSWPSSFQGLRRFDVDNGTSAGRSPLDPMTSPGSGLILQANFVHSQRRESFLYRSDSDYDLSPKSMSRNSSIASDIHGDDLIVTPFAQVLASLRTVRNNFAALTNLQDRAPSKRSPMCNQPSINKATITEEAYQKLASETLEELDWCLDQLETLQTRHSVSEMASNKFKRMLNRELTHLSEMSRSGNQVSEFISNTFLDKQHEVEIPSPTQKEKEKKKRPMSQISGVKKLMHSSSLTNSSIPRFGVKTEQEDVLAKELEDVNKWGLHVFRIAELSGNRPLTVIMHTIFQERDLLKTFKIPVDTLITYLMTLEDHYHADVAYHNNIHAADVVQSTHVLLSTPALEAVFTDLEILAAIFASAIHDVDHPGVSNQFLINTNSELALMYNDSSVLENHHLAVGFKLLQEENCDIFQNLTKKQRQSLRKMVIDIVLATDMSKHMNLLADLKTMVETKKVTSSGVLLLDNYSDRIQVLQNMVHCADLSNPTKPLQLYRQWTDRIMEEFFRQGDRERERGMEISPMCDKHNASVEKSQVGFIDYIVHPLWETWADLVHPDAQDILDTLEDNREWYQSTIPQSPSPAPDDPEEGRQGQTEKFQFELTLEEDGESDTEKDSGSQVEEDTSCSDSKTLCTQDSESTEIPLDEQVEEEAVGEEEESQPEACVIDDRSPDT
Bile salt export pump, sequence (O95342 whole entry): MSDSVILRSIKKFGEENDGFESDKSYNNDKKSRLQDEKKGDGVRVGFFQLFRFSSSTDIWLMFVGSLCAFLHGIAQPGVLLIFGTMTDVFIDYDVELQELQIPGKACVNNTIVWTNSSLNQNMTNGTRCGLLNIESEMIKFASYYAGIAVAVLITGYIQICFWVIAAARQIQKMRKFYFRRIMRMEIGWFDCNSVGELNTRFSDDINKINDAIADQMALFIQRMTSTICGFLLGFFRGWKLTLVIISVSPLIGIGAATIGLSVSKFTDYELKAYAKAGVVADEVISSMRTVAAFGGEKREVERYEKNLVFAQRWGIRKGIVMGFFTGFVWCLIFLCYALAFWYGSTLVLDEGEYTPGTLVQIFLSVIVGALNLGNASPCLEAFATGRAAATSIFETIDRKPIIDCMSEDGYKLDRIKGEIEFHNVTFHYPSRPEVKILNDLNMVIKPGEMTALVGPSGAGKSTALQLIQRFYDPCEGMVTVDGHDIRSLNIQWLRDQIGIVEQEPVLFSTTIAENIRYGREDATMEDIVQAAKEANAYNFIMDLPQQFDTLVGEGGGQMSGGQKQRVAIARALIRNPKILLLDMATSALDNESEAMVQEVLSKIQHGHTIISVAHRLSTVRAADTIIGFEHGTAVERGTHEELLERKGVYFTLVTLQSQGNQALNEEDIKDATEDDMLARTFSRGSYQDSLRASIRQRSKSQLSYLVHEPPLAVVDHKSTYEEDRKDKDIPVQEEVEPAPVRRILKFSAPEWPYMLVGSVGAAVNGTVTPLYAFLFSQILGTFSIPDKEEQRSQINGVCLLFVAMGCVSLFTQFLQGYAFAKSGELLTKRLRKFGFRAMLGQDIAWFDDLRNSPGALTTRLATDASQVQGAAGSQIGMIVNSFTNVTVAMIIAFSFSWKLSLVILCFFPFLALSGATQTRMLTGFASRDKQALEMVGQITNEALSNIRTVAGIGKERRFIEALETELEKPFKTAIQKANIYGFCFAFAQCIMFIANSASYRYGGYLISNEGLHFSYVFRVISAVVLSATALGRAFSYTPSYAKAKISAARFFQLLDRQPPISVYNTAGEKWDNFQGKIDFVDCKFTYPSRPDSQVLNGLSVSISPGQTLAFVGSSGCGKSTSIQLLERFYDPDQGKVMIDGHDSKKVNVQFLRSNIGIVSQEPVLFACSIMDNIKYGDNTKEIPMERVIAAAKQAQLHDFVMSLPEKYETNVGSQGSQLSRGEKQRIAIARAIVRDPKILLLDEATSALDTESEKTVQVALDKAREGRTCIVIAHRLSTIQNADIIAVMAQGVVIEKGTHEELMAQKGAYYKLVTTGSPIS

Take `OC[C@H]1NC[C@H](O)[C@@H](O)[C@H]1O`: on Bile salt export pump, the AC50 was more than 300 µM.

Regarding `O=C(O)[C@@H](S)[C@@H](S)C(=O)O`, the AC50 on Bile salt export pump was found to be 50 µM.

Take `C=CCOc1ccc(CC(=O)O)cc1Cl` [ALCLOFENAC]: the concentration at half-maximal activity (AC50) at Bile salt export pump was more than 300 µM.

As for `CN(C)CCC=C1c2ccccc2CCc2ccccc21` [AMITRIPTYLINE], the AC50 was 23 µM at Melanocortin receptor 3; more than 30 µM in [1]; 180 µM on Bile salt export pump; more than 10 µM on D(1A) dopamine receptor; more than 30 µM at Adenosine receptor A1; 8.7 µM in test [2]. Further, the AC50 is more than 30 µM on Adenosine receptor A2a; more than 30 µM in test [3]; 0.29 µM in [4]; more than 10 µM in test [5]; more than 10 µM in [6].

Regarding `CC(C)NCC(O)COc1ccc(CC(N)=O)cc1` (centres undefined) [ATENOLOL], the AC50 at Melanocortin receptor 3 was more than 30 µM; in [1] it was more than 30 µM; on Bile salt export pump, more than 300 µM; at Adenosine receptor A1 it was more than 30 µM; in [2], more than 30 µM; on Adenosine receptor A2a it was more than 30 µM. Moreover, the AC50 in [3], in test [4], in test [5], in test [6] and in [7] was more than 30 µM in each case.

Take `O=C(Cc1cccs1)N[C@@H]1C(=O)N2C(C(=O)[O-])=C(C[n+]3ccccc3)CS[C@H]12` [CEPHALORIDINE]: the AC50 (in [1]; in test [8]; at D(1A) dopamine receptor; in test [2]; in [3]; in test [4]) was more than 30 µM each time. The AC50 in test [5] and in [6] was more than 30 µM each time.

For `CN1CCN(C(c2ccccc2)c2ccc(Cl)cc2)CC1` (centres undefined) [CHLORCYCLIZINE], the AC50 on Bile salt export pump is more than 300 µM.

On to `CN(C)CCCC1(c2ccc(F)cc2)OCc2cc(C#N)ccc21` (centres undefined) [CITALOPRAM], for which the AC50 was more than 30 µM on Melanocortin receptor 3; more than 30 µM in [1]; 0.678 µM in test [8]; more than 300 µM on Bile salt export pump; more than 30 µM on Adenosine receptor A1; more than 30 µM in test [2]. The AC50 was more than 30 µM at Adenosine receptor A2a; more than 30 µM in test [3]; more than 10 µM in test [4]; more than 10 µM in test [5]; more than 10 µM in test [6].

Turning to `O=P1(N(CCCl)CCCl)NCCCO1` (centres undefined) [CYCLOPHOSPHAMIDE ANHYDROUS], the concentration at half-maximal activity (AC50) at Bile salt export pump was more than 300 µM.

For the compound `O=c1[nH]c2ccccc2n1CCN1CCN(c2cccc(C(F)(F)F)c2)CC1` [FLIBANSERIN], the AC50 on Bile salt export pump is 29 µM.

For `O=c1[nH]cc(F)c(=O)[nH]1` [FLUOROURACIL], the AC50 (on Melanocortin receptor 3; at Adenosine receptor A1; at Adenosine receptor A2a; in test [7]) was more than 30 µM in each case.

Regarding `N#Cc1ccnc(N2C(=O)CC[C@H]2C(=O)N(c2cncc(F)c2)[C@H](C(=O)NC2CC(F)(F)C2)c2ccccc2Cl)c1` [IVOSIDENIB], the AC50 at Bile salt export pump is 79 µM.

As for `CC(=O)NC[C@H]1CN(c2ccc(N3CCOCC3)c(F)c2)C(=O)O1` [LINEZOLID], the AC50 on Melanocortin receptor 3 was more than 30 µM; in [1] it was more than 30 µM; at Bile salt export pump it was more than 300 µM; on Adenosine receptor A1 it was more than 30 µM; in test [2], more than 30 µM; at Adenosine receptor A2a it was more than 30 µM. Further, the AC50 in test [3], in test [4], in test [5] and in [6] was more than 30 µM throughout.

As to `O=NN(CCCl)C(=O)NC1CCCCC1` [LOMUSTINE], the AC50 at Bile salt export pump was more than 300 µM.

`O=C1[C@@H]2[C@H]3CC[C@H](C3)[C@@H]2C(=O)N1C[C@@H]1CCCC[C@H]1CN1CCN(c2nsc3ccccc23)CC1` [LURASIDONE]: the AC50 at Melanocortin receptor 3 was more than 30 µM; in [1], more than 30 µM; in [8] it was 0.071 µM; on Bile salt export pump, 13 µM; on Adenosine receptor A1, more than 30 µM; in [2], more than 30 µM. Besides, the AC50 at Adenosine receptor A2a is more than 30 µM; in test [3], more than 30 µM; in test [4] it was 1.1 µM; in test [7] it was more than 30 µM.

Consider `CCCCCCO[C@@H](C)c1cccc(-c2csc(NC(=O)c3cc(Cl)c(/C=C(\C)C(=O)O)c(Cl)c3)n2)c1OC` [LUSUTROMBOPAG], for which the AC50 on Bile salt export pump was 4 µM.

For `Cc1cc(C)cc(OCC2CNC(=O)O2)c1` (centres undefined) [METAXALONE], the concentration at half-maximal activity (AC50) at Bile salt export pump is more than 300 µM.

On to `CS(=O)(=O)Nc1ccc([N+](=O)[O-])cc1Oc1ccccc1` [NIMESULIDE], for which the AC50 is more than 30 µM on Melanocortin receptor 3; more than 30 µM in test [1]; 110 µM at Bile salt export pump; more than 30 µM at D(1A) dopamine receptor; more than 30 µM in test [2]; 20 µM at Adenosine receptor A2a. The AC50 in [3] was more than 30 µM; in test [4] it was more than 30 µM; in test [5] it was more than 30 µM; in [6] it was more than 30 µM; in test [7] it was 19 µM.

`CCCCCCCC/C=C\CCCCCCCC(=O)O` [OLEIC ACID]: at Bile salt export pump, the AC50 is 260 µM.

Regarding `C#CCN(C)Cc1ccccc1` [PARGYLINE], the AC50 (in test [1]; in [8]; on D(1A) dopamine receptor; in test [2]; in test [3]; in test [4]) was more than 30 µM in each case. For the same compound, the AC50 in test [5] and in test [6] was more than 30 µM in each case.

As for `CC1=C(C/C=C(\C)CCC[C@H](C)CCC[C@H](C)CCCC(C)C)C(=O)c2ccccc2C1=O` [PHYTONADIONE], the AC50 at Bile salt export pump was determined as 160 µM.

In the case of `Cc1ccc(C(C)C)c(O)c1` [THYMOL], the AC50 on Bile salt export pump was more than 300 µM.

As to `CN(C)CCN(Cc1ccccc1)c1ccccn1` [TRIPELENNAMINE], the AC50 at Melanocortin receptor 3 is more than 10 µM; in test [1], more than 30 µM; in [8] it was more than 10 µM; on D(1A) dopamine receptor, more than 10 µM; on Adenosine receptor A1, more than 10 µM; in test [2] it was more than 30 µM. The AC50 at Adenosine receptor A2a was more than 10 µM; in test [3] it was more than 10 µM; in test [4] it was 9.4 µM; in test [5] it was more than 10 µM; in [6] it was more than 10 µM; in test [7] it was 13.4 µM.

A word on the AC50: it is the concentration at which the activity in the assay is half-maximal.
